Measured values as given in patent US20070174925A1, “Treatment models and uses thereof” (priority 2003, published 2007).

Assays:
[1] = system: zebrafish; test: DMSO tolerance of zebrafish; format: in vivo; conditions: final concentration in fish water
Procedure: A further advantage of zebrafish is the fact they live in water. This makes administration of candidate chemicals easy. Moreover, the inventors have discovered that zebrafish are also DMSO tolerant. This is important as many drugs are dissolved in DMSO. The inventors have established that zebrafish can tolerate 1% DMSO. Thus, a candidate drug or other test substance may be dissolved in DMSO and administered to zebrafish by adding to the fish water to give a final concentration of DMSO of at least up to 1%. This is employed in various preferred aspects and embodiments of the present invention.

[2] = system: larval zebrafish; test: temperature gradient assay of thermal nociception; format: in vivo; conditions: for location of fish in temperature gradient versus control fish: fish less than 10 days old, opiate 1 ug/ml or cannabinoid 5 ug/ml in water for 30 minutes at 28° C. before testing, t=10 mins
Procedure: 1. The ambient environment was prepared through the use of an air handling system to maintain a constant air temperature below 24° C., enabling maintenance of a stable water gradient.
2. A shallow tray was taken of dimensions 2 cm deep, 30 cm long and 20 cm wide. This was filled with oxygenated water from the aquarium, the composition of which is suitable sustain zebrafish. This water was cooled to less than the lowest temperature desired in the gradient.
3. The tray was placed on top of two heating plates: a hot plate, capable of heating to high temperatures, and a hot block. The heights of the blocks were adjusted so that when the tray is placed on top of them the tray lies flat (FIG. 1). It was important to ensure the heating surfaces were symmetrically located under the long axis of the tray to ensure equal heating of both longitudinal halves of the tray.
4. A transparent 30 cm ruler was placed on top of the tray and the boundaries of 4 quadrants marked on it: 0-7.5 cm, 7.5-15 cm, 15-22.5 cm and 22.5-30 cm (FIGS. 2 and 8). These serve to split the gradient up into areas as a means of summarizing temperature choice.
5. Aluminum foil was used to make channels for the fish to swim in. These were water tight and closed at one end and open at the other. […] The open end is necessary so that as water evaporates from the hot end the channels don't dry up. They were then placed in the water with the closed end at the cool end. They were then filled with water. The channels were in the middle of the tray, i.e. not closer to one long side of the tray than the other.
6. The hotplate and hotblock were turned on to achieve a temperature of about 40° C. maintained at the hot end, with the unheated end reaching only 24° C. To measure the temperature at each quadrant boundary, thermometers were placed near the channels at each boundary.
7. When a stable gradient was achieved, fish were taken directly from the fish room (28° C.). As much of the liquid around them as possible was removed. […]
9. At 2, 5 and 10 minutes, the number of fish in each quadrant was counted. […]

[3] = system: fish sensitized with DNCB; test: DNCB-induced hyperalgesia and its rescue, temperature gradient assay; format: in vivo, zebrafish; conditions: same DNCB-sensitized fish treated with an opiate and retested; t=5 mins

Structure (SMILES)	concentration tolerated by zebrafish [1]	location of fish in temperature gradient versus control fish [2]	location of three week old fish in temperature gradient versus untreated fish ([2]; three week old fish treated with an opiate)	distribution in gradient of DNCB-sensitized fish after treatment and retest (rescue of hyperalgesia) [3]
C[S+](C)[O-] [DMSO]	1%			
COC(=O)N1CCN(C(=O)Cc2ccc(Cl)c(Cl)c2)C(CN2CCCC2)C1.O=C(O)/C=C/C(=O)O (centres unmarked) [opiate, GR 89696 Fumerate]		more often found in water of a higher temperature than control fish	locate to regions of a higher temperature than untreated fish	lose this sensitivity, and their distribution becomes randomized in the gradient
CCCCC/C=C\C/C=C\C/C=C\C/C=C\CCCC(=O)NCCO [endogenous cannabinoid, Anandamide]		less aversion to higher temperatures		
